From BindingDB's records for doi:10.1016/j.bmc.2019.06.020 (Shanghai Jiao Tong University, 2019)

Columns and labels:
[1] = target: T1, Polypeptide N-acetylgalactosaminyltransferase 2 (Homo sapiens, UniProt Q10471); assay: Binding affinity of human recombinant FLAG-tagged ppGalNAcT2 expressed in HEK293 cells assessed as association rate by SPR analysis; conditions: read-out: kon (M-1-s-1)
[2] = target: T1, Polypeptide N-acetylgalactosaminyltransferase 2; assay: Binding affinity of human recombinant FLAG-tagged ppGalNAcT2 expressed in HEK293 cells assessed as dissociation rate by SPR analysis

T1 sequence (Q10471 whole entry): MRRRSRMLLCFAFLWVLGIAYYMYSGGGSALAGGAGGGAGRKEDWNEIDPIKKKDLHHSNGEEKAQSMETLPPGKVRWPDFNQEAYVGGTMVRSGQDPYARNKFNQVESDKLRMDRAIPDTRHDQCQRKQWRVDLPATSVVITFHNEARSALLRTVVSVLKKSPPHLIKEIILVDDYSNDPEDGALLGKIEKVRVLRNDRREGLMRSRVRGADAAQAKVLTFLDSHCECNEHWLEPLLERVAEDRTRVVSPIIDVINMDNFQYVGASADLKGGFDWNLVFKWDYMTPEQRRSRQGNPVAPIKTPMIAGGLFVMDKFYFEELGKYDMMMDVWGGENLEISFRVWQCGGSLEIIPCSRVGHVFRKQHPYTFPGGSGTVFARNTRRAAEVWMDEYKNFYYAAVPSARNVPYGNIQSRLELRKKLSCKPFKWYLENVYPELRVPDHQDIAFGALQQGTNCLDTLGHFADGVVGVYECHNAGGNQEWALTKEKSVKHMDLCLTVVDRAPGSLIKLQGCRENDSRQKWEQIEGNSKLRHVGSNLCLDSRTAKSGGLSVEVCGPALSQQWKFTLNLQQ

Row | kon [1] [M⁻¹ s⁻¹] | koff [2] [s⁻¹] | SMILES
1 | 3530 | 0.00104 | O=c1oc2c(O)c(O)ccc2c2cc(O)c(O)cc12
2 | 2370 | 0.000879 | O=c1oc2c(O)c(O)cc3c(=O)oc4c(O)c(O)cc1c4c23 [Elagic Acid]

Row | SMILES | kon [1] [M⁻¹ s⁻¹] | koff [2] [s⁻¹]
3 | O=C(O)c1cc(O)c(O)c(O)c1 [Gallic Acid, F] | 1450 | 0.00134
